Results reported in patent US20140213513A1 (Sanofi, priority 2012, published 2014).
*1 amine or outer side, *2 acyl side, *3 side chain or, on linkers, in order; H or OH if unused. Where a SMILES comes first, the peptide text is derived from it. Where no end group is shown, it is not given here. Side-chain parts run from the residue outwards. [ ]: non-standard residue; d: D form. The star is where a group is joined. γGlu = O=C(O)[C@H](CCC(=O)[*:2])N[*:1]; Stearoyl = CCCCCCCCCCCCCCCCCC(=O)*; Palmitoyl = CCCCCCCCCCCCCCCC(=O)*; Aib = CC(C)(N)C(=O)O

Tests used:
[1] = target: T1, human GLP-1 receptor (hGLP-1 R) (Homo sapiens, UniProt P43220); experiment: cAMP response of HEK-293 cells stably expressing human GLP-1 receptor (HTRF); type: cell-based; conditions: Table 7; cAMP formation
T1 construct: expressed in transfected cells
T1 sequence (P43220 24-463): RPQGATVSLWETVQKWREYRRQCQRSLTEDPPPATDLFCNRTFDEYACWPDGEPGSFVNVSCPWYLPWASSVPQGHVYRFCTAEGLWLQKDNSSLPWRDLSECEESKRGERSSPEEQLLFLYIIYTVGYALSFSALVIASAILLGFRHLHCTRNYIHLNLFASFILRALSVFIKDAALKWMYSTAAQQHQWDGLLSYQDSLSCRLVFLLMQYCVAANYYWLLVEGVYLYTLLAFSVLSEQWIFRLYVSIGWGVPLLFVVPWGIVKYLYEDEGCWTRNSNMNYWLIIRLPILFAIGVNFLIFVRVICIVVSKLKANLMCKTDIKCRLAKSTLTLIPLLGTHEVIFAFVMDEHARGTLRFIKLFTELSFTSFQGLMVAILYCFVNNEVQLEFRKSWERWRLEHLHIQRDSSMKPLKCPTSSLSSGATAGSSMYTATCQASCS
Method: (§1) cAMP content of cells was determined using a kit from Cisbio Corp. (cat. no. 62AM4PEC) based on HTRF (Homogenous Time Resolved Fluorescence). For preparation, cells were split into T175 culture flasks and grown overnight to near confluency in medium (DMEM/10% FBS). Medium was then removed and cells washed with PBS lacking calcium and magnesium, followed by proteinase treatment with accutase (Sigma-Aldrich cat. no. A6964). Detached cells were washed and resuspended in assay buffer (1×HBSS; 20 mM HEPES, 0.1% BSA, 2 mM IBMX) and cellular density determined. They were then diluted to 400000 cells/ml and 25 μl-aliquots dispensed into the wells of 96-well plates. For measurement, 25 μl of test compound in assay buffer was added to the wells, followed by incubation for 30 minutes at room temperature.

[2] = target: T2, human glucagon receptor (hGLUC R) (Homo sapiens, UniProt P47871); experiment: cAMP response of HEK-293 cells stably expressing human glucagon receptor (HTRF); type: cell-based; conditions: Table 7; cAMP formation
T2 construct: expressed in transfected cells
T2 sequence (P47871 26-477): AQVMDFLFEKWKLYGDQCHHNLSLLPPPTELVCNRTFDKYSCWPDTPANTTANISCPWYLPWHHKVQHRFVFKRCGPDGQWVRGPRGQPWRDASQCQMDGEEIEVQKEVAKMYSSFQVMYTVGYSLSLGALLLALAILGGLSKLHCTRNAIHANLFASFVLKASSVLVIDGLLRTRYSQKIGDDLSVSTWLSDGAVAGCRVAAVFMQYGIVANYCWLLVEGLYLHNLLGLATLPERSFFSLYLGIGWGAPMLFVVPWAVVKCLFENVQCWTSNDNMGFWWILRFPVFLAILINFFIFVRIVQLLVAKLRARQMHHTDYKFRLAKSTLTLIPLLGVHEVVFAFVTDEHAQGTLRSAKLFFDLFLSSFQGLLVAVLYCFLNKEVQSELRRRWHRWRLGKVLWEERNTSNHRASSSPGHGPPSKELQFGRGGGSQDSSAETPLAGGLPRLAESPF
Method: as §1

[3] = target: T3, human GIP receptor (hGIP R) (Homo sapiens, UniProt P48546); experiment: cAMP response of HEK-293 cells stably expressing human GIP receptor (HTRF); type: cell-based; conditions: Table 7; cAMP formation
T3 construct: expressed in transfected cells
T3 sequence (P48546 22-466): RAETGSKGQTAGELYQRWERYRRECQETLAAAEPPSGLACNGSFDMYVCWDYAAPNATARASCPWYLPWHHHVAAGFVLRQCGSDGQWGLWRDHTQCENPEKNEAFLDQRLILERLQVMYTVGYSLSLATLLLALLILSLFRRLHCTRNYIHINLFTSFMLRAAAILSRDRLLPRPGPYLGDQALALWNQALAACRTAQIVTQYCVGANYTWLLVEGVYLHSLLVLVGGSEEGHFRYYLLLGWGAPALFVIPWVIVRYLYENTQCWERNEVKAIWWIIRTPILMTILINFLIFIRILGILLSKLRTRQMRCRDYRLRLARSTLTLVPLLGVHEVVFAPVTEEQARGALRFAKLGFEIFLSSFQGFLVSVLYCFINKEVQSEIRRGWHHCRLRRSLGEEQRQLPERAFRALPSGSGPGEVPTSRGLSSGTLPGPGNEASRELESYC
Method: as §1

[4] = target: human GLP-1 receptor (human, UniProt P43220 24-463); experiment: cell-based or functional assay
[5] = target: human glucagon receptor (human, UniProt P47871 26-477); experiment: cell-based or functional assay
Chain of human glucagon receptor (P47871 26-477): as the sequence (P47871 26-477) above

[6] = target: T4, human GIP receptor (human, UniProt P48546 22-466); experiment: cell-based or functional assay
T4 sequence (looked up): T3 sequence (P48546 22-466)

`CCCCCCCCCCCCCCCC(=O)N[C@@H](CCC(=O)NCCCC[C@H](NC(=O)[C@H](CCC(N)=O)NC(=O)[C@@H](NC(=O)[C@H](CO)NC(=O)[C@H](CC(C)C)NC(=O)[C@H](CC(=O)O)NC(=O)[C@H](CO)NC(=O)[C@@H](NC(=O)[C@H](Cc1ccccc1)NC(=O)[C@@H](NC(=O)CNC(=O)[C@H](CCC(N)=O)NC(=O)C(C)(C)NC(=O)[C@@H](N)Cc1ccc(O)cc1)[C@@H](C)O)[C@@H](C)O)[C@@H](C)CC)C(=O)N[C@@H](CCC(=O)O)C(=O)N[C@@H](CCCCN)C(=O)N[C@@H](CC(C)C)C(=O)N[C@@H](C)C(=O)N[C@@H](C)C(=O)NC(C)(C)C(=O)N[C@@H](CCC(=O)O)C(=O)N[C@@H](Cc1ccccc1)C(=O)N[C@H](C(=O)N[C@@H](CCC(=O)O)C(=O)N[C@@H](Cc1c[nH]c2ccccc12)C(=O)N[C@@H](CC(C)C)C(=O)N[C@@H](CCCCN)C(=O)N[C@@H](CC(N)=O)C(=O)N[C@H](C(=O)NCC(=O)N1CCC[C@H]1C(=O)N[C@@H](CO)C(=O)N[C@@H](CO)C(=O)NCC(=O)N[C@@H](C)C(=O)N1CCC[C@H]1C(=O)N1CCC[C@H]1C(=O)N1CCC[C@H]1C(=O)N[C@@H](CO)C(N)=O)[C@@H](C)O)[C@@H](C)CC)C(=O)O` [SEQ ID NO: 8, Y-Aib-Q-G-T-F-T-S-D-L-S-I-Q-K(yE-x53)-E-K-L-A-A-Aib-E-F-I-E-W-L-K-N-T-G-P-S-S-G-A-P-P-P-S-NH2] (H-Y[Aib]QGTFTSDLSIQK([γGlu-Palmitoyl])EKLAA[Aib]EFIEWLKNTGPSSGAPPPS-NH2) gave an EC50 [1] of 0.0087 nM, an EC50 [2] of 0.803 nM and an EC50 [3] of 0.026 nM.

With `CCCCCCCCCCCCCCCC(=O)N[C@@H](CCC(=O)NCCCC[C@H](NC(=O)[C@H](CCC(N)=O)NC(=O)[C@@H](NC(=O)[C@H](CO)NC(=O)[C@H](CC(C)C)NC(=O)[C@H](CC(=O)O)NC(=O)[C@H](CO)NC(=O)[C@@H](NC(=O)[C@H](Cc1ccccc1)NC(=O)[C@@H](NC(=O)CNC(=O)[C@H](CCC(N)=O)NC(=O)C(C)(C)NC(=O)[C@@H](N)Cc1ccc(O)cc1)[C@@H](C)O)[C@@H](C)O)[C@@H](C)CC)C(=O)N[C@@H](CC(=O)O)C(=O)N[C@@H](CCCCN)C(=O)N[C@@H](CCCNC(=N)N)C(=O)N[C@@H](C)C(=O)N[C@H](C(=O)N[C@@H](CCC(N)=O)C(=O)N[C@@H](CC(C)C)C(=O)N[C@@H](Cc1ccccc1)C(=O)N[C@H](C(=O)N[C@@H](CCC(=O)O)C(=O)N[C@@H](Cc1c[nH]c2ccccc12)C(=O)N[C@@H](CC(C)C)C(=O)N[C@@H](CCCCN)C(=O)N[C@@H](CC(N)=O)C(=O)NCC(=O)NCC(=O)N1CCC[C@H]1C(=O)N[C@@H](CO)C(=O)N[C@@H](CO)C(=O)NCC(=O)N[C@@H](C)C(=O)N1CCC[C@H]1C(=O)N1CCC[C@H]1C(=O)N1CCC[C@H]1C(=O)N[C@@H](CO)C(N)=O)[C@@H](C)CC)C(C)C)C(=O)O` [SEQ ID NO: 47, Y-Aib-Q-G-T-F-T-S-D-L-S-I-Q-K(yE-x53)-DKRAVQLFIEWLKNGGPSSGAPPPS-NH2] (H-Y[Aib]QGTFTSDLSIQK([γGlu-Palmitoyl])DKRAVQLFIEWLKNGGPSSGAPPPS-NH2) the EC50 [1] was 0.0156 nM and the EC50 [2] was 2.39 nM.

Molecule `CCCCCCCCCCCCCCCC(=O)N[C@@H](CCC(=O)NCCCC[C@H](NC(=O)[C@H](CCC(N)=O)NC(=O)[C@@H](NC(=O)[C@H](CO)NC(=O)[C@H](CC(C)C)NC(=O)[C@H](CC(=O)O)NC(=O)[C@H](CO)NC(=O)[C@@H](NC(=O)[C@H](Cc1ccccc1)NC(=O)[C@@H](NC(=O)CNC(=O)[C@H](CCC(=O)O)NC(=O)C(C)(C)NC(=O)[C@@H](N)Cc1ccc(O)cc1)[C@@H](C)O)[C@@H](C)O)[C@@H](C)CC)C(=O)N[C@@H](CC(=O)O)C(=O)N[C@@H](CCCCN)C(=O)N[C@@H](CCCNC(=N)N)C(=O)N[C@@H](CCCCN)C(=O)N[C@@H](C)C(=O)N[C@@H](CCC(N)=O)C(=O)N[C@@H](CC(=O)O)C(=O)N[C@@H](Cc1ccccc1)C(=O)N[C@H](C(=O)N[C@@H](CCC(=O)O)C(=O)N[C@@H](Cc1c[nH]c2ccccc12)C(=O)N[C@@H](CC(C)C)C(=O)N[C@@H](CCCCN)C(=O)N[C@@H](CC(N)=O)C(=O)NCC(=O)NCC(=O)N1CCC[C@H]1C(=O)N[C@@H](CO)C(=O)N[C@@H](CO)C(=O)NCC(=O)N[C@@H](C)C(=O)N1CCC[C@H]1C(=O)N1CCC[C@H]1C(=O)N1CCC[C@H]1C(=O)N[C@@H](CO)C(N)=O)[C@@H](C)CC)C(=O)O` [SEQ ID NO: 54, Y-Aib-E-G-T-F-T-S-D-L-S-I-Q-K(yE-x53)-DKRKAQDFIEWLKNGGPSSGAPPPS-NH2] (H-Y[Aib]EGTFTSDLSIQK([γGlu-Palmitoyl])DKRKAQDFIEWLKNGGPSSGAPPPS-NH2) has an EC50 [1] of 0.0668 nM and an EC50 [2] of 2.62 nM.

`CCCCCCCCCCCCCCCCCC(=O)N[C@@H](CCC(=O)NCCCC[C@H](NC(=O)[C@H](CCC(N)=O)NC(=O)[C@@H](NC(=O)[C@H](CO)NC(=O)[C@H](CC(C)C)NC(=O)[C@H](CC(=O)O)NC(=O)[C@H](CO)NC(=O)[C@@H](NC(=O)[C@H](Cc1ccccc1)NC(=O)[C@@H](NC(=O)CNC(=O)[C@H](CCC(=O)O)NC(=O)C(C)(C)NC(=O)[C@@H](N)Cc1ccc(O)cc1)[C@@H](C)O)[C@@H](C)O)[C@@H](C)CC)C(=O)N[C@@H](CCC(=O)O)C(=O)N[C@@H](CCC(=O)O)C(=O)N[C@@H](CCCNC(=N)N)C(=O)N[C@@H](C)C(=O)N[C@H](C(=O)N[C@@H](CCCNC(=N)N)C(=O)N[C@@H](CC(C)C)C(=O)N[C@@H](Cc1ccccc1)C(=O)N[C@H](C(=O)N[C@@H](CCC(=O)O)C(=O)N[C@@H](Cc1c[nH]c2ccccc12)C(=O)N[C@@H](CC(C)C)C(=O)N[C@@H](CCCCN)C(=O)N[C@@H](C)C(=O)NCC(=O)NCC(=O)N1CCC[C@H]1C(=O)N[C@@H](CO)C(=O)N[C@@H](CO)C(=O)NCC(=O)N[C@@H](C)C(=O)N1CCC[C@H]1C(=O)N1CCC[C@H]1C(=O)N1CCC[C@H]1C(=O)N[C@@H](CO)C(N)=O)[C@@H](C)CC)C(C)C)C(=O)O` [SEQ ID NO: 64, Y-Aib-E-G-T-F-T-S-D-L-S-I-Q-K(yE-x70)-EERAVRLFIEWLKAGGPSSGAPPPS-NH2] (H-Y[Aib]EGTFTSDLSIQK([γGlu-Stearoyl])EERAVRLFIEWLKAGGPSSGAPPPS-NH2) gave an EC50 [2] of 75.1 nM and an EC50 [3] of 0.0096 nM.

B1: exendin-4 peptide analogue SEQ ID NO: 37 (peptide)
peptide: Y[Aib]EGTFTSDLSIQK([γGlu-Palmitoyl])EERAAHEFIEWLKR[Aib]GPSSGAPPPS-NH2
modifications: N-terminus assumed
SMILES: CCCCCCCCCCCCCCCC(=O)N[C@@H](CCC(=O)NCCCC[C@H](NC(=O)[C@H](CCC(N)=O)NC(=O)[C@@H](NC(=O)[C@H](CO)NC(=O)[C@H](CC(C)C)NC(=O)[C@H](CC(=O)O)NC(=O)[C@H](CO)NC(=O)[C@@H](NC(=O)[C@H](Cc1ccccc1)NC(=O)[C@@H](NC(=O)CNC(=O)[C@H](CCC(=O)O)NC(=O)C(C)(C)NC(=O)[C@@H](N)Cc1ccc(O)cc1)[C@@H](C)O)[C@@H](C)O)[C@@H](C)CC)C(=O)N[C@@H](CCC(=O)O)C(=O)N[C@@H](CCC(=O)O)C(=O)N[C@@H](CCCNC(=N)N)C(=O)N[C@@H](C)C(=O)N[C@@H](C)C(=O)N[C@@H](Cc1c[nH]cn1)C(=O)N[C@@H](CCC(=O)O)C(=O)N[C@@H](Cc1ccccc1)C(=O)N[C@H](C(=O)N[C@@H](CCC(=O)O)C(=O)N[C@@H](Cc1c[nH]c2ccccc12)C(=O)N[C@@H](CC(C)C)C(=O)N[C@@H](CCCCN)C(=O)N[C@@H](CCCNC(=N)N)C(=O)NC(C)(C)C(=O)NCC(=O)N1CCC[C@H]1C(=O)N[C@@H](CO)C(=O)N[C@@H](CO)C(=O)NCC(=O)N[C@@H](C)C(=O)N1CCC[C@H]1C(=O)N1CCC[C@H]1C(=O)N1CCC[C@H]1C(=O)N[C@@H](CO)C(N)=O)[C@@H](C)CC)C(=O)O
In the case of B1, the “EC50 hGLP-1 R” value [4] is reported as 0.0066 nM, the “EC50 hGLUC R” value [5] is reported as 12.1 nM and the “EC50 hGIP R” value [6] is reported as 0.0121 nM.
